Patent publication US9682141B2, “Combination of kinase inhibitors and uses thereof” (INTELLIKINE LLC, priority 2011, dated 2017)

Columns and labels:
Assay type in all cases: biochemical
PI3K β = PI3K β (Homo sapiens (Human), UniProt P42338); experiment: PI 3-Kinase (human) HTRF assay, p110β/p85α
PI3K γ = PI3K γ (Homo sapiens (Human), UniProt P48736); experiment: PI 3-Kinase (human) HTRF assay, p110γ; details: read-out: PI3K γ IC50
PI3K δ = PI3K δ (Homo sapiens (Human), UniProt O00329); experiment: PI 3-Kinase (human) HTRF assay, p110δ/p85α
PI3K α = PI3K α (Homo sapiens (Human), UniProt P42336); experiment: PI 3-Kinase (human) HTRF assay, p110α/p85α
Chain of PI3K α (P42336 whole entry): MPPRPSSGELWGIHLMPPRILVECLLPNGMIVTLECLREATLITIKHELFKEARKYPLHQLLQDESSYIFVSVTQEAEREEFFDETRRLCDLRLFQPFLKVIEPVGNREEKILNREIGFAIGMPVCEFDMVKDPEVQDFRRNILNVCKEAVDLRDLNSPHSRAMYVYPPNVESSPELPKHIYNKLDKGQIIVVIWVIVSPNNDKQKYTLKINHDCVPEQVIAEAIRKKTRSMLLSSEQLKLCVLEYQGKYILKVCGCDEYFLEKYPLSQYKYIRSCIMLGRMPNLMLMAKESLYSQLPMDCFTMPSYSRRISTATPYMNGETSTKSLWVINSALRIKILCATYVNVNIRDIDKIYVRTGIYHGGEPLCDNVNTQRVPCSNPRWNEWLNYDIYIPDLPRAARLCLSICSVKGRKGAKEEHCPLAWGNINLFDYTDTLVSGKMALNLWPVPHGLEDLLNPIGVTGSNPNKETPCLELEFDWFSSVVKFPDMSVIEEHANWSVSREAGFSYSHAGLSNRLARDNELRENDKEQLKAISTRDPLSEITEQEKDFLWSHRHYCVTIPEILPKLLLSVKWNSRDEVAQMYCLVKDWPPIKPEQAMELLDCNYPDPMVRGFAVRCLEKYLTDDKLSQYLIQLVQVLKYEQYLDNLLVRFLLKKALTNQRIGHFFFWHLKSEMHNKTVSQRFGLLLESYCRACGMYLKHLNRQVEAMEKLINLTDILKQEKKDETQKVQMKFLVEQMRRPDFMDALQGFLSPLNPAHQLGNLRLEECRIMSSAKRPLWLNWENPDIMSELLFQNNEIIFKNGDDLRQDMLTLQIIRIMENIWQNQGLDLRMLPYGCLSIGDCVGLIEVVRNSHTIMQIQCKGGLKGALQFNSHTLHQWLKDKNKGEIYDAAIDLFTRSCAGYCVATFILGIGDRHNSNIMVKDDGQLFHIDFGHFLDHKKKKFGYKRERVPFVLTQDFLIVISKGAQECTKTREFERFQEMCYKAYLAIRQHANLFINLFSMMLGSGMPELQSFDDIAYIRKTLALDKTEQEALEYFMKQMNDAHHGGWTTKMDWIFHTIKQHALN
Chain of PI3K α (P27986 whole entry partner): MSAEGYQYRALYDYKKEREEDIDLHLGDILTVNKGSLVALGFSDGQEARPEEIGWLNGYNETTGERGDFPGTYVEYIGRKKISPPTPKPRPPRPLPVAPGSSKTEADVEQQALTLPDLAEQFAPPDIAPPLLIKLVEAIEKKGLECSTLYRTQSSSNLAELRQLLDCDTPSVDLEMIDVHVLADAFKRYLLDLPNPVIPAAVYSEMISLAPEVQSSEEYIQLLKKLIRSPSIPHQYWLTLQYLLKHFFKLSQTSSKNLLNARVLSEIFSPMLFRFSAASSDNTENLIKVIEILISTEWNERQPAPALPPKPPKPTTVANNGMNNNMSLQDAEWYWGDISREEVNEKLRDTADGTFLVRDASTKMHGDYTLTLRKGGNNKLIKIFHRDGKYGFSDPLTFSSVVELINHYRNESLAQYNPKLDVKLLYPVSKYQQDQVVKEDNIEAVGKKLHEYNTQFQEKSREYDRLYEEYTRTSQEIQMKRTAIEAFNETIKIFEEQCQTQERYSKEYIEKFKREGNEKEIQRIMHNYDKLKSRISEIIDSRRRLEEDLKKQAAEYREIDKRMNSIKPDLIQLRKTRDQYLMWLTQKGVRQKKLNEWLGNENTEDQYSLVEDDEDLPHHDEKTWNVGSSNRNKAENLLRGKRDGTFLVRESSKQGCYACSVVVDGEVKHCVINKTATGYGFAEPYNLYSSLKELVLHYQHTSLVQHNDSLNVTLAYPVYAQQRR

Chain of PI3K β (P42338 whole entry): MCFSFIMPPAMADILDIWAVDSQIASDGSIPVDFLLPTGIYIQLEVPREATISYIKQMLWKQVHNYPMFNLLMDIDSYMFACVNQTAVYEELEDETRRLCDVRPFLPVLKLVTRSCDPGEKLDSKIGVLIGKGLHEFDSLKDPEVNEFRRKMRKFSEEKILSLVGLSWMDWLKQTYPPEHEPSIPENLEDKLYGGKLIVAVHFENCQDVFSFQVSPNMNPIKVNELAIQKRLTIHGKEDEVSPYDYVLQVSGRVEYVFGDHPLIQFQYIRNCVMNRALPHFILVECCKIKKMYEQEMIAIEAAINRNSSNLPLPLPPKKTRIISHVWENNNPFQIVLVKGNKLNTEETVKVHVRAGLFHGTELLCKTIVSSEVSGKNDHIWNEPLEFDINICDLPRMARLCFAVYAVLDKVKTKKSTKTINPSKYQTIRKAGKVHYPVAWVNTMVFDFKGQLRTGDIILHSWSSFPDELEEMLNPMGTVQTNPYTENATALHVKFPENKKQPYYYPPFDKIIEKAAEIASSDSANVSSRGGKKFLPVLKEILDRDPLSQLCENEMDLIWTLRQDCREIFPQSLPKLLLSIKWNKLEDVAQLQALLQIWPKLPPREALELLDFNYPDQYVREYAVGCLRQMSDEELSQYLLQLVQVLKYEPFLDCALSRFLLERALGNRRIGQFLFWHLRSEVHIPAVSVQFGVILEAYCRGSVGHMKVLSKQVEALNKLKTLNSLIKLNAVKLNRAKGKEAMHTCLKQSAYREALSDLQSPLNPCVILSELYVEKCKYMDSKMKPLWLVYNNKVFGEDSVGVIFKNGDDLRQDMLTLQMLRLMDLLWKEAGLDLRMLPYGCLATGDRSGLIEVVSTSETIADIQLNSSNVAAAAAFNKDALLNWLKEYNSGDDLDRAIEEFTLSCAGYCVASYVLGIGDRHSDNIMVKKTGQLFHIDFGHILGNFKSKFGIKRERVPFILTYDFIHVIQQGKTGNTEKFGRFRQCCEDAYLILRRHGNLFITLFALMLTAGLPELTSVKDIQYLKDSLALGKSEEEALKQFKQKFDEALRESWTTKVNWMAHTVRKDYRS
Chain of PI3K β (P27986 whole entry partner): as the sequence (P27986 whole entry partner) above
Chain of PI3K δ (O00329 whole entry): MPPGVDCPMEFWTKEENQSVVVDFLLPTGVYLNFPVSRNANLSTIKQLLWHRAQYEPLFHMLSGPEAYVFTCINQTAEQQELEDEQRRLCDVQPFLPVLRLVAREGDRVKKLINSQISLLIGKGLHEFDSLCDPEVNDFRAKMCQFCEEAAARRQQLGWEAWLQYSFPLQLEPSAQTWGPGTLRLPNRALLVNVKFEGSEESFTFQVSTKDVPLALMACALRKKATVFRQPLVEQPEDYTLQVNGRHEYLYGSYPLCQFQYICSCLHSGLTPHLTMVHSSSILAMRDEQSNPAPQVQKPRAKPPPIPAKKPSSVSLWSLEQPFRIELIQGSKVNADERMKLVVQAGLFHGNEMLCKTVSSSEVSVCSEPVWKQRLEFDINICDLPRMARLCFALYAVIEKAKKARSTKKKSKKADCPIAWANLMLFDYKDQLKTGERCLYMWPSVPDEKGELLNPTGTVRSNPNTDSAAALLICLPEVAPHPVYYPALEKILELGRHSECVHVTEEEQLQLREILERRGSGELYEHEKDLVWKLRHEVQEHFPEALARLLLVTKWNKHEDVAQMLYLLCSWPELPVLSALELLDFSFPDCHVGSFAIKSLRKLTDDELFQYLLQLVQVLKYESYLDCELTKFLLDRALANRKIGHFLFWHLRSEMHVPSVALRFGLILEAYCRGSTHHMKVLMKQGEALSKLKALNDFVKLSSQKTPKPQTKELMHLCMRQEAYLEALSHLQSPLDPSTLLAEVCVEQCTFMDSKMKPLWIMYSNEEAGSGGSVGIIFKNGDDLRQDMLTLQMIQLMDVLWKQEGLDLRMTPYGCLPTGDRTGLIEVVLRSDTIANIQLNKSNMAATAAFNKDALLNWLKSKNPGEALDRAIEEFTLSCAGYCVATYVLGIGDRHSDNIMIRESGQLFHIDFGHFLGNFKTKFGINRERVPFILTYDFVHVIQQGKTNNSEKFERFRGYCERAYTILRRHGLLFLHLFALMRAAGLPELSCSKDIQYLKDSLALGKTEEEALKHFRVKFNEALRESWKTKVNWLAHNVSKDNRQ
Chain of PI3K δ (P27986 whole entry partner): as the sequence (P27986 whole entry partner) above
Chain of PI3K γ (P48736 whole entry): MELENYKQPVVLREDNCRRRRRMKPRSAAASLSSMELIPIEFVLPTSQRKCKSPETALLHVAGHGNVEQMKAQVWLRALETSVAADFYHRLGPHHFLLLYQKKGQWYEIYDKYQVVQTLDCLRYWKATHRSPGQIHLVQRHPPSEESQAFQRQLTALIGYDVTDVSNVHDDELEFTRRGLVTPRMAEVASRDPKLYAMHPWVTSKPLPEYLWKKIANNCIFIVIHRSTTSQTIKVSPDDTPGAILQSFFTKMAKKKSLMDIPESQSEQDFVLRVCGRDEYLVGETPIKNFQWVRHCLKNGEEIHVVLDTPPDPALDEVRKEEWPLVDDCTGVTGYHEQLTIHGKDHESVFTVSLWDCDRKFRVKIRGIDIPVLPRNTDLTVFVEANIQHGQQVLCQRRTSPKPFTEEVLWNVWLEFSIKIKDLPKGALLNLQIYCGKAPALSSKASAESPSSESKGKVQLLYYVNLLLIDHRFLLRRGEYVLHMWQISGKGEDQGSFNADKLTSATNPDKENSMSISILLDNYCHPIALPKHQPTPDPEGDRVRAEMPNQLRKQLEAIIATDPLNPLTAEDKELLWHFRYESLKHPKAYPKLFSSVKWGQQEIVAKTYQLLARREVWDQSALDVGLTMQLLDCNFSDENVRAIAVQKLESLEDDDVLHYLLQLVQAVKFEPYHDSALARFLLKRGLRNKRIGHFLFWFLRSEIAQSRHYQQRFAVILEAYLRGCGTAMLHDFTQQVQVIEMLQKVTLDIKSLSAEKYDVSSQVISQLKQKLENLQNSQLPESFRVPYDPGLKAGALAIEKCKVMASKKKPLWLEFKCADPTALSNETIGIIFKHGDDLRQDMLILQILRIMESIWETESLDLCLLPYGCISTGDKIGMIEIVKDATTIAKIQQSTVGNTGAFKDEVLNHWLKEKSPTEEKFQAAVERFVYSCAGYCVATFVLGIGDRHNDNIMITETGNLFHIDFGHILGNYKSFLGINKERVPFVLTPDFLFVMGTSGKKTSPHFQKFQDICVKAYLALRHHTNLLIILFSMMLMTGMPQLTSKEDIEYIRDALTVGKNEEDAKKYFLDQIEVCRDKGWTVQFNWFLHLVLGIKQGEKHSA

IC50 (PI3K β) [nM] | IC50 (PI3K γ) [nM] | IC50 (PI3K δ) [nM] | IC50 (PI3K α) [nM] | SMILES
< 1000 | < 100 | < 10000 | < 100 | CC1CN(c2cnc3ccc(-c4ccc5oc(N)nc5c4)cc3n2)CCO1 (stereo not shown)
> 10000 | > 10000 | > 10000 | < 1000 | Cc1ncccc1-c1cnc2ccc(-c3ccc4oc(N)nc4c3)cc2n1
< 10000 | < 1000 | < 10000 | < 100 | Nc1nc2cc(-c3ccc4ncc(N5CCC(O)CC5)cc4n3)ccc2o1
< 100 | < 100 | < 100 | < 100 | Nc1nc2cc(-c3ccc4nccc(-c5ccncc5)c4c3)ccc2s1
< 10000 | > 10000 | > 10000 | < 1000 | CN1CCN(C(=O)c2cnc3ccc(-c4ccc5sc(N)nc5c4)cn23)CC1
< 100 | < 1000 | < 100 | < 100 | CN(C)C1CCN(c2cnc3ccc(-c4ccc5oc(N)nc5c4)cc3n2)CC1
> 10000 | < 10000 | > 10000 | < 1000 | Nc1nc2cc(-c3ccc4ncc(C(=O)N5CCC(O)CC5)n4c3)ccc2o1
< 1000 | < 10000 | > 10000 | < 1000 | Nc1nc2cc(-c3ccc4ncc(N5CCOCC5)n4n3)ccc2o1
< 1000 | < 100 | < 10000 | < 100 | CN1CCN(c2ncnc3ccc(-c4ccc5oc(N)nc5c4)cc23)CC1 [Compound 23]
< 10000 | < 1000 | < 10000 | < 1000 | Nc1nc2cc(-c3cn4c(-c5cn[nH]c5)cnc4cn3)ccc2o1
< 1000 | < 1000 | < 100 | < 100 | CN1CCC(NC(=O)c2cnc3ccc(-c4ccc5oc(N)nc5c4)cn23)CC1
> 10000 | > 10000 | > 10000 | > 10000 | Cc1nc2ccc(-c3ccc4oc(N)nc4c3)cn2c1C(=O)N1CCOCC1
> 10000 | < 10000 | > 10000 | < 10000 | C[C@@H]1COCCN1C1CN(c2cnc3ccc(-c4ccc5oc(N)nc5c4)nc3n2)C1
< 10000 | < 100 | < 10000 | < 100 | Nc1nc2cc(-c3ccc4ncc(-c5cccnc5)cc4n3)ccc2o1
< 10000 | < 100 | > 10000 | < 100 | Nc1nc2cc(-c3ccc4ncc(-c5cnn(CCO)c5)nc4c3)ccc2o1
> 10000 | < 1000 | < 10000 | < 100 | CS(=O)(=O)N1CCN(C(=O)c2cnc3ccc(-c4ccc5oc(N)nc5c4)cn23)CC1
< 1000 | < 100 | < 1000 | < 100 | CS(=O)(=O)N1CCN(c2cnc3ccc(-c4ccc5oc(N)nc5c4)cc3n2)CC1
< 10000 | < 1000 | < 10000 | < 100 | Nc1nc2cc(-c3cn4c(-c5ccncc5)cnc4cn3)ccc2o1
> 10000 | < 10000 | > 10000 | < 1000 | Nc1nc2cc(-c3ccc4ncc(N5CC(N6CC7CCC(C6)O7)C5)nc4n3)ccc2o1
< 10000 | < 10000 | < 10000 | < 1000 | Nc1nc2cc(-c3ccc4ncc(C(=O)N5CCN(CC6CC6)CC5)n4c3)ccc2o1
< 1000 | < 100 | < 1000 | < 100 | CC(C)(C#N)c1ccc(Nc2ncnc3ccc(-c4ccc5oc(N)nc5c4)cc23)cc1

IC50 (PI3K β) [nM] | IC50 (PI3K γ) [nM] | IC50 (PI3K δ) [nM] | IC50 (PI3K α) [nM] | SMILES
< 10000 | > 10000 | > 10000 | < 100 | CC(C)N1CCN(C(=O)c2cnc3ccc(-c4ccc5oc(N)nc5c4)cn23)CC1
> 10000 | < 10000 | > 10000 | < 1000 | Nc1nc2cc(-c3ccc4ncc(C(=O)N5CCS(=O)(=O)CC5)n4c3)ccc2o1
< 1000 | < 1000 | < 1000 | < 100 | NCC(=O)N1CCN(c2cnc3ccc(-c4ccc5oc(N)nc5c4)cc3n2)CC1
< 10000 | < 100 | > 10000 | < 100 | Nc1nc2cc(-c3ccc4ncc(C5=CCOCC5)nc4n3)ccc2o1
< 10000 | < 100 | < 100 | < 100 | Nc1nc2cc(-c3ccc4ncnc(NC5CCN(C(=O)C6CC6)CC5)c4c3)ccc2o1
< 100 | < 100 | < 100 | < 100 | CC(=O)N1CCN(c2cnc3ccc(-c4ccc5oc(N)nc5c4)cc3n2)CC1
< 1000 | > 10000 | < 10000 | < 100 | Nc1nc2cc(-c3ccc4ncc(N5CCC(N)CC5)nc4c3)ccc2o1
< 1000 | < 10000 | < 1000 | < 100 | CC(N)C(=O)N1CCN(c2cnc3ccc(-c4ccc5oc(N)nc5c4)cc3n2)CC1 (stereo not shown)
< 10000 | < 100 | < 1000 | < 100 | Nc1nc2cc(-c3ccc4ncc(NC5CCOCC5)nc4c3)ccc2o1
> 10000 | > 10000 | > 10000 | < 10000 | CC(C)N1CCN(C2CN(c3cnc4ccc(-c5ccc6oc(N)nc6c5)nc4n3)C2)CC1
< 1000 | > 10000 | < 10000 | < 100 | CNC(=O)CN1CCN(c2cnc3ccc(-c4ccc5oc(N)nc5c4)cc3n2)CC1
< 10000 | < 1000 | < 10000 | < 100 | Nc1nc2cc(-c3ccc4ncc(N5CC(N6CCN(C7CC7)CC6)C5)cc4n3)ccc2o1
< 1000 | < 100 | < 1000 | < 100 | Nc1nc2cc(-c3ccc4ncc(C(=O)NCCO)n4c3)ccc2o1
< 10000 | < 1000 | > 10000 | < 1000 | Nc1nc2cc(-c3ccc4ncc(C(=O)N5CCOCC5)n4c3)ccc2s1
< 10000 | > 10000 | > 10000 | < 1000 | CCN1CCC(n2cnc3ccc(-c4ccc5oc(N)nc5c4)cc3c2=O)CC1
> 10000 | < 100 | < 1000 | < 100 | Nc1nc2cc(-c3ccc4ncc(C(=O)Nc5cccnc5)n4c3)ccc2o1
< 10000 | < 1000 | > 10000 | < 100 | Nc1nc2cc(-c3ccc4ncn(CCO)c(=O)c4c3)ccc2o1
> 10000 | < 10000 | > 10000 | < 10000 | C[C@@H]1CN(C(=O)c2cnc3ccc(-c4ccc5oc(N)nc5c4)cn23)C[C@H](C)O1
> 10000 | < 10000 | > 10000 | < 10000 | Nc1nc2cc(-c3cnc4ccc(N5CCOCC5)nc4c3)ccc2o1
> 10000 | < 1000 | > 10000 | < 100 | CC(=O)N1CCN(C(=O)c2cnc3ccc(-c4ccc5oc(N)nc5c4)cn23)CC1
< 1000 | < 1000 | < 1000 | < 100 | CCOC(=O)N1CCN(c2cnc3ccc(-c4ccc5oc(N)nc5c4)nc3n2)CC1

SMILES | IC50 (PI3K β) [nM] | IC50 (PI3K γ) [nM] | IC50 (PI3K δ) [nM] | IC50 (PI3K α) [nM]
CN1CCC(N(C)c2cnc3ccc(-c4ccc5oc(N)nc5c4)cc3n2)CC1 | < 10000 | < 10000 | < 1000 | < 100
